US20080021026A1, “BENZOTHIOPHENE INHIBITORS OF RHO KINASE” (priority 2006, published 2008)
Read-outs that look alike come from different tables or passages of the source.

How the values were obtained:
[1] = biological target: T1, recombinant N-terminal GST-tagged human Rho kinase 1 (ROCK1, amino acids 1-535) (Homo sapiens, UniProt Q13464); experiment: In vitro Rho kinase assay (luciferase-based ATP consumption), ROCK1; assay type: biochemical
T1 construct: ROCK1, amino acids 1-535; purchased Invitrogen Inc. PV-3691
Method in brief: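 ATP depletion measured by firefly luciferase luminescence after 2 h at 30 °C, with inhibition raising signal and activity expressed relative to H-1152P. Reaction: 0.82 μg/ml recombinant GST-tagged ROCK1 (aa 1-535), S6 peptide 100 μg/ml, […], pH 7.5 Tris buffer.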

[2] = biological target: T2, recombinant N-terminal GST-tagged human Rho kinase 2 (ROCK2, amino acids 1-552) (Homo sapiens, UniProt O75116); experiment: In vitro Rho kinase assay (luciferase-based ATP consumption), ROCK2; assay type: biochemical
T2 construct: ROCK2, amino acids 1-552; purchased Invitrogen Inc. PV3759
Method in brief: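 Luciferase-based luminescence of leftover ATP after 2 h at 30 °C, where inhibition raises signal, reports activity of GST-tagged ROCK2 (aa 1-552) at 0.82 μg/ml. Conditions: S6 peptide 100 μg/ml, […], pH 7.5 Tris buffer. Results given as percent of H-1152P control activity.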

[3] = recombinant GST-tagged human ROCK1, luciferase-based ATP consumption, read-out: ROCK1 IC50
[4] = recombinant GST-tagged human ROCK2, luciferase-based ATP consumption, read-out: ROCK2 IC50

T1 sequence (Q13464 1-535): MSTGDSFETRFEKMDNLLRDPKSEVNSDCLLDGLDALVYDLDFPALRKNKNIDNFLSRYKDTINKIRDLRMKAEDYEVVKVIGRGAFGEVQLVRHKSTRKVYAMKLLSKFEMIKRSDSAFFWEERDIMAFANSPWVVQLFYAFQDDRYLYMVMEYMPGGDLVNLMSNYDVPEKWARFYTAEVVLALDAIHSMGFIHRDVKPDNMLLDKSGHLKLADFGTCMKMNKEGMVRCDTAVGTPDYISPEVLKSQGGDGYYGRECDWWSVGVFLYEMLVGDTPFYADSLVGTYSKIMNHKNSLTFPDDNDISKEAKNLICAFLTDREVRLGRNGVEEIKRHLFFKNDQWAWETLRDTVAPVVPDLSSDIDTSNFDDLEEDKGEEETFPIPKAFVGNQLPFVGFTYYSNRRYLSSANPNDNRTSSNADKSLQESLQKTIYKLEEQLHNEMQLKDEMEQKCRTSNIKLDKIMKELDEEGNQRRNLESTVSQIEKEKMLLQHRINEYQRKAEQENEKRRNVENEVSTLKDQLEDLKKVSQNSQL
T2 sequence (O75116 1-552): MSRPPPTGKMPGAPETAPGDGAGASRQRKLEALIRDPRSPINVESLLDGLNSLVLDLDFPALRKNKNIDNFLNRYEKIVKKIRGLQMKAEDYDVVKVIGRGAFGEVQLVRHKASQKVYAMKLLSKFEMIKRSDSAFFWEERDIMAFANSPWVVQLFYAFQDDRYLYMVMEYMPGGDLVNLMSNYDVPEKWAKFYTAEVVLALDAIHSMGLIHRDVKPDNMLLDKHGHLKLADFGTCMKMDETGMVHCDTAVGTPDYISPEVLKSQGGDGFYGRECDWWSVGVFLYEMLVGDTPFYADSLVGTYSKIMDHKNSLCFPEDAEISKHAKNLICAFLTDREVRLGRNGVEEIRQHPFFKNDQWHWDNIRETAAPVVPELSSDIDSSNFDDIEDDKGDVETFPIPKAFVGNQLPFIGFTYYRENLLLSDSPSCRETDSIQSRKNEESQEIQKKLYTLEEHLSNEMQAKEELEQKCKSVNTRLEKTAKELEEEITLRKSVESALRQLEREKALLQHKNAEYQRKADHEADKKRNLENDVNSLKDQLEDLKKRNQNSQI

Structure (SMILES) | IC50 [1, 3] | IC50 [2, 4] | IC50 ([1]; ROCK1 IC50, recombinant GST-tagged human ROCK1, luciferase-based ATP consumption) | IC50 ([2]; ROCK2 IC50, recombinant GST-tagged human ROCK2, luciferase-based ATP consumption)
COc1ccc(NC(=O)c2cccc(Cc3ccc4sc(-c5ccnc(N)n5)c(C)c4c3)c2)cc1 [Example 46, 3-((2-(2-Aminopyrimidin-4-yl)-3-methylbenzo[b]thiophen-5-yl)methyl)-N-(4-methoxyphenyl)benzamide] | < 5 µM | < 5 µM |  | 
Cc1cc(C(=O)NCc2ccc3sc(-c4ccnc(N)n4)c(C)c3c2)ccc1Br [Example 286, Cc1cc(ccc1Br)C(═O)NCc2ccc3sc(c(C)c3c2)-c4ccnc(N)n4] | > 5 µM | > 5 µM |  | 
Cc1c(-c2ccnc(N)n2)sc2ccc(CNC(=O)c3cc(Cl)ccc3[N+](=O)[O-])cc12 [Example 269, Cc1c(sc2ccc(CNC(═O)c3cc(Cl)ccc3[N+]([O−])═O)cc12)-c4ccnc(N)n4] | < 5 µM | < 5 µM |  | 
Cc1c(-c2ccnc(N)n2)sc2ccc(CNC(=O)C3CC(O)CN3C(=O)OC(C)(C)C)cc12 (stereo not drawn) [Example 311, Cc1c(sc2ccc(CNC(═O)[C]3CC(O)CN3C(═O)OC(C)(C)C)cc12)-c4ccnc(N)n4] | > 5 µM | > 5 µM |  | 
Cc1c(-c2ccnc(N)n2)sc2ccc(CNC(=O)Cc3ccc(Br)cc3)cc12 [Example 288, Cc1c(sc2ccc(CNC(═O)Cc3ccc(Br)cc3)cc12)-c4ccnc(N)n4] | < 5 µM | < 5 µM |  | 
Cc1c(-c2ccnc(N)n2)sc2ccc(CNC(=O)Cc3ccc(C(F)(F)F)cc3)cc12 [Example 273, Cc1c(sc2ccc(CNC(═O)Cc3ccc(cc3)C(F)(F)F)cc12)-c4ccnc(N)n4] | < 5 µM | < 5 µM |  | 
Cc1c(-c2ccnc(N)n2)sc2ccc(CNC(=O)c3cccc(O)c3O)cc12 [Example 143, Cc1c(sc2ccc(CNC(═O)c3cccc(O)c3O)cc12)-c4ccnc(N)n4] | > 5 µM | < 5 µM |  | 
Cc1c(-c2ccnc(N)c2)sc2ccc(Cl)cc12 [Example 7, 4-(5-Chloro-3-methylbenzo[b]thiophen-2-yl)pyridin-2-amine] | > 5 µM | > 5 µM |  | 
COc1ccc(OC)c(C(=O)NCc2ccc3sc(-c4ccnc(N)n4)c(C)c3c2)c1 [Example 36, N-((2-(2-Aminopyrimidin-4-yl)-3-methylbenzo[b]thiophen-5-yl)methyl)-2,5-dimethoxybenzamide] | < 5 µM | < 5 µM |  | 
CCCCc1ccc(C(=O)NCc2ccc3sc(-c4ccnc(N)n4)c(C)c3c2)cc1 [Example 203, CCCCc1ccc(cc1)C(═O)NCc2ccc3sc(c(C)c3c2)-c4ccnc(N)n4] | > 5 µM | > 5 µM |  | 
CCCCOc1ccc(C(=O)NCc2ccc3sc(-c4ccnc(N)n4)c(C)c3c2)cc1 [Example 257, CCCCOc1ccc(cc1)C(═O)NCc2ccc3sc(c(C)c3c2)-c4ccnc(N)n4] | > 5 µM | > 5 µM |  | 
Cc1c(-c2ccnc(N)n2)sc2ccc(CNC(=O)c3ccccn3)cc12 [Example 111, Cc1c(sc2ccc(CNC(═O)c3ccccn3)cc12)-c4ccnc(N)n4] | > 5 µM | < 5 µM |  | 
Cc1c(-c2ccnc(N)n2)sc2ccc(CNC(=O)COc3ccccc3C=O)cc12 [Example 207, Cc1c(sc2ccc(CNC(═O)COc3ccccc3C═O)cc12)-c4ccnc(N)n4] | < 5 µM | < 5 µM |  | 
COc1ccc(O)c(C(=O)NCc2ccc3sc(-c4ccnc(N)n4)c(C)c3c2)c1 [Example 182, COc1ccc(O)c(c1)C(═O)NCc2ccc3sc(c(C)c3c2)-c4ccnc(N)n4] | > 5 µM | < 5 µM |  | 
Cc1c(-c2ccnc(N)n2)sc2ccc(-c3ccccc3)cc12 [Example 88, 4-(3-Methyl-5-phenylbenzo[b]thiophen-2-yl)pyrimidin-2-amine] | < 5 µM | > 5 µM |  | 
Cc1c(-c2ccnc(N)n2)sc2ccc(Cc3cccc(C(=O)Nc4ccc(N5CCOCC5)cc4)c3)cc12 [Example 45, 3-((2-(2-Aminopyrimidin-4-yl)-3-methylbenzo[b]thiophen-5-yl)methyl)-N-(4-morpholinophenyl)benzamide] | < 5 µM | < 5 µM |  | 
Cc1c(-c2ccnc(N)n2)sc2ccc(CNC(=O)c3cc(F)c(F)cc3Cl)cc12 [Example 252, Cc1c(sc2ccc(CNC(═O)c3cc(F)c(F)cc3Cl)cc12)-c4ccnc(N)n4] |  |  | < 5 µM | < 5 µM
Cc1c(-c2ccnc(N)n2)sc2ccc(CNC(=O)CCc3cccc(Br)c3)cc12 [Example 304, Cc1c(sc2ccc(CNC(═O)CCc3cccc(Br)c3)cc12)-c4ccnc(N)n4] | > 5 µM | < 5 µM |  | 
Cc1c(-c2ccnc(N)n2)sc2ccc(Cc3ccccc3)cc12 [Example 24, 4-(5-Benzyl-3-methylbenzo[b]thiophen-2-yl)pyrimidin-2-amine] | < 5 µM | < 5 µM |  | 
Cc1c(-c2ccnc(N)n2)sc2ccc(C(=O)O)cc12 [Example 19, 2-(2-Aminopyrimidin-4-yl)-3-methylbenzo[b]thiophene-5-carboxylic acid] | < 5 µM | > 5 µM |  | 

Structure (SMILES) | IC50 [1, 3] | IC50 [2, 4] | IC50 ([1]; ROCK1 IC50, recombinant GST-tagged human ROCK1, luciferase-based ATP consumption) | IC50 ([2]; ROCK2 IC50, recombinant GST-tagged human ROCK2, luciferase-based ATP consumption)
Cc1c(-c2ccnc(N)n2)sc2ccc(CNC(=O)CCc3ccccc3Br)cc12 [Example 303, Cc1c(sc2ccc(CNC(═O)CCc3ccccc3Br)cc12)-c4ccnc(N)n4] | > 5 µM | > 5 µM |  | 
COc1ccc(C(=O)NCc2ccc3sc(-c4ccnc(N)n4)c(C)c3c2)c(O)c1 [Example 183, COc1ccc(C(═O)NCc2ccc3sc(c(C)c3c2)-c4ccnc(N)n4)c(O)c1] | > 5 µM | < 5 µM |  | 
Cc1c(-c2ccnc(N)n2)sc2ccc(C(=O)N3CCC(NC(=O)OC(C)(C)C)C3)cc12 (stereo not drawn) [Example 22, tert-Butyl 1-(2-(2-aminopyrimidin-4-yl)-3-methylbenzo[b]thiophene-5-carbonyl)pyrrolidin-3-ylcarbamate] | > 5 µM | > 5 µM |  | 
Cc1cccc(C(=O)NCc2ccc3sc(-c4ccnc(N)n4)c(C)c3c2)c1 [Example 118, Cc1cccc(c1)C(═O)NCc2ccc3sc(c(C)c3c2)-c4ccnc(N)n4] | > 5 µM | > 5 µM |  | 
Cc1c(-c2ccnc(N)n2)sc2ccc(Nc3cccc(NC(=O)c4ccc(O)cc4)c3)cc12 [Example 61, N-(3-(2-(2-Aminopyrimidin-4-yl)-3-methylbenzo[b]thiophen-5-ylamino)phenyl)-4-hydroxybenzamide] | < 5 µM | < 5 µM |  | 
Cc1c(-c2ccnc(N)n2)sc2ccc(CNC(=O)c3ncc[nH]3)cc12 [Example 103, Cc1c(sc2ccc(CNC(═O)c3ncc[nH]3)cc12)-c4ccnc(N)n4] | < 5 µM | < 5 µM |  | 
Cc1c(-c2ccnc(N)n2)sc2ccc(CNC(=O)c3ccc(OC(C)C)cc3)cc12 [Example 214, CC(C)Oc1ccc(cc1)C(═O)NCc2ccc3sc(c(C)c3c2)-c4ccnc(N)n4] | > 5 µM | > 5 µM |  | 
Cc1c(-c2ccnc(N)n2)sc2ccc(N)cc12 [Example 72, 4-(5-Amino-3-methylbenzo[b]thiophen-2-yl)pyrimidin-2-amine] | < 5 µM | < 5 µM |  | 
Cc1c(-c2ccnc3[nH]ccc23)sc2ccc(Cl)cc12 [Example 6, 4-(5-Chloro-3-methylbenzo[b]thiophen-2-yl)-1H-pyrrolo[2,3-b]pyridine] | > 5 µM | > 5 µM |  | 
Cc1c(-c2ccnc(N)n2)sc2ccc(CNC(=O)c3cccc(F)c3F)cc12 [Example 154, Cc1c(sc2ccc(CNC(═O)c3cccc(F)c3F)cc12)-c4ccnc(N)n4] | > 5 µM | < 5 µM |  | 
COc1cccc(C#Cc2ccc3sc(-c4ccnc(N)n4)c(C)c3c2)c1 [Example 89, 4-(5-((3-Methoxyphenyl)ethynyl)-3-methylbenzo[b]thiophen-2-yl)pyrimidin-2-amine] | > 5 µM | > 5 µM |  | 
Cc1ccc(C(=O)NCc2ccc3sc(-c4ccnc(N)n4)c(C)c3c2)cc1 [Example 120, Cc1ccc(cc1)C(═O)NCc2ccc3sc(c(C)c3c2)-c4ccnc(N)n4] | > 5 µM | < 5 µM |  | 
Cc1ccccc1OCC(=O)NCc1ccc2sc(-c3ccnc(N)n3)c(C)c2c1 [Example 175, Cc1ccccc1OCC(═O)NCc2ccc3sc(c(C)c3c2)-c4ccnc(N)n4] | > 5 µM | < 5 µM |  | 
Cc1c(-c2ccnc(N)n2)sc2ccc(CNC(=O)c3ccc(Cl)cc3O)cc12 [Example 190, Cc1c(sc2ccc(CNC(═O)c3ccc(Cl)cc3O)cc12)-c4ccnc(N)n4] | < 5 µM | < 5 µM |  | 
Cc1c(-c2ccnc(N)n2)sc2ccc(CNC(=O)CNC(=O)OC(C)(C)C)cc12 [Example 196, Cc1c(sc2ccc(CNC(═O)CNC(═O)OC(C)(C)C)cc12)-c3ccnc(N)n3] | < 5 µM | < 5 µM |  | 
COc1cc(C(=O)NCc2ccc3sc(-c4ccnc(N)n4)c(C)c3c2)cc(OC)c1OC [Example 279, COc1cc(cc(OC)c1OC)C(═O)NCc2ccc3sc(c(C)c3c2)-c4ccnc(N)n4] | > 5 µM | < 5 µM |  | 
Cc1c(-c2ccnc(N)n2)sc2ccc(Br)cc12 [Example 13, 4-(5-Bromo-3-methylbenzo[b]thiophen-2-yl)pyrimidin-2-amine] | < 5 µM | < 5 µM |  | 
COc1ccc(C(=O)NCc2ccc3sc(-c4ccnc(N)n4)c(C)c3c2)c(OC)c1 [Example 219, COc1ccc(C(═O)NCc2ccc3sc(c(C)c3c2)-c4ccnc(N)n4)c(OC)c1] | > 5 µM | < 5 µM |  | 
CC(=O)c1ccccc1C(=O)NCc1ccc2sc(-c3ccnc(N)n3)c(C)c2c1 [Example 165, CC(═O)c1ccccc1C(═O)NCc2ccc3sc(c(C)c3c2)-c4ccnc(N)n4] | > 5 µM | < 5 µM |  | 
